Test results reported in PubChem BioAssay AID256 (DTP/NCI, 2004).
Where “and” joins values, the source holds several entries; their conditions need not be identical. Equal values may be shown once. Inconclusive results and toxic doses are left out. The calls were made as follows: active = survival T/C of 150% or more; inactive = T/C below 125% in these data. Non-standard residues stand in square brackets, D forms with d. Residues, ends and D or L forms follow the SMILES beside them. ξ: configuration not given here. *: point of attachment. ξV = CC(C)C(N)C(=O)O; ClAc = O=C(CCl)*

System: CD2F1 mice, L1210 leukemia ip, survival T/C
Assay: NCI In Vivo Anticancer Drug Screen. Data for tumor model L1210 Leukemia (intraperitoneal) in CD2F1 (CDF1) mice
Details: higher = longer survival
Method in brief: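 Ratio T/C, where T is the treated-group value and C the vehicle-dosed control value, from mice implanted with a transplantable tumor.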

[1] = endpoint: mean survival time, dose: 25.0 mg/kg/injection, schedule: Q01DX009 (ip), vehicle: saline with Tween-80
[2] = endpoint: mean survival time, dose: 100.0 mg/kg/injection, schedule: Q01DX009 (ip), vehicle: saline with Tween-80
[3] = endpoint: mean survival time, dose: 100.0 mg/kg/injection, schedule: Q04DX003 (ip), vehicle: saline with Tween-80
[4] = endpoint: mean survival time, dose: 200.0 mg/kg/injection, schedule: Q01DX009 (ip), vehicle: saline with Tween-80
[5] = endpoint: mean survival time, dose: 200.0 mg/kg/injection, schedule: Q04DX003 (ip), vehicle: saline with Tween-80
[6] = endpoint: mean survival time, dose: 400.0 mg/kg/injection, schedule: Q04DX003 (ip), vehicle: saline with Tween-80
[7] = endpoint: mean survival time, dose: 200.0 mg/kg/injection, schedule: Q04DX002 (ip), vehicle: saline with Tween-80
[8] = endpoint: mean survival time, dose: 50.0 mg/kg/injection, schedule: Q01DX009 (ip), vehicle: saline with Tween-80
[9] = endpoint: mean survival time, dose: 400.0 mg/kg/injection, schedule: Q01DX009 (ip), vehicle: saline with Tween-80

Measured: T/C

CCCCCCCCCC1=NC(C)(C)CN1C(C)(C)CO
inactive: endpoint: mean survival time, dose: 1.25 mg/kg/injection, schedule: Q01DX009 (ip), vehicle: saline with Tween-80 106 % of control | endpoint: mean survival time, dose: 2.5 mg/kg/injection, schedule: Q01DX009 (ip), vehicle: saline with Tween-80 109 % of control | endpoint: mean survival time, dose: 5.0 mg/kg/injection, schedule: Q01DX009 (ip), vehicle: saline with Tween-80 91 % of control

CCOC(=O)C(Br)(Br)C(=O)OCC
inactive: endpoint: mean survival time, dose: 6.25 mg/kg/injection, schedule: Q01DX009 (ip), vehicle: saline with Tween-80 99 % of control | endpoint: mean survival time, dose: 12.5 mg/kg/injection, schedule: Q01DX009 (ip), vehicle: saline with Tween-80 99 % of control | [1] 99 % of control

COc1ccc(C(O)(c2ccccc2)C(OC(=O)CCl)c2ccccc2)cc1 (configuration not stated)
inactive: endpoint: mean survival time, dose: 200.0 mg/kg/injection, schedule: Q01DX001 (ip), vehicle: saline with Tween-80 91 % of control | endpoint: mean survival time, dose: 400.0 mg/kg/injection, schedule: Q01DX001 (ip), vehicle: saline with Tween-80 89 % of control

C1CNCCNCCNCCN1
inactive: endpoint: mean survival time, dose: 12.5 mg/kg/injection, schedule: Q01DX009 (ip), vehicle: water 100 % of control | endpoint: mean survival time, dose: 25.0 mg/kg/injection, schedule: Q01DX009 (ip), vehicle: water 100 % of control | endpoint: mean survival time, dose: 50.0 mg/kg/injection, schedule: Q01DX009 (ip), vehicle: water 96 % of control | endpoint: mean survival time, dose: 100.0 mg/kg/injection, schedule: Q01DX009 (ip), vehicle: water 94 % of control

OC(c1ccccc1)(c1ccccc1)c1nc2ccccc2o1
inactive: [2] 107 % of control | [3] 96 % of control | [4] 100 % of control | [5] 91 % of control | [6] 95 % of control

O=c1oc(/C=C/c2ccccc2)nc2ccccc12
inactive: endpoint: mean survival time, dose: 100.0 mg/kg/injection, schedule: Q04DX002 (ip), vehicle: saline with Tween-80 100 % of control | [7] 100 % of control | endpoint: mean survival time, dose: 400.0 mg/kg/injection, schedule: Q04DX002 (ip), vehicle: saline with Tween-80 103 % of control

CC(=O)Nc1cccc(Oc2ccc([N+](=O)[O-])cc2)c1
inactive: endpoint: mean survival time, dose: 100.0 mg/kg/injection, schedule: Q04DX002 (ip), vehicle: Klucel (hydroxypropylcellulose) (HPC) 98 % of control | endpoint: mean survival time, dose: 200.0 mg/kg/injection, schedule: Q04DX002 (ip), vehicle: Klucel (hydroxypropylcellulose) (HPC) 103 % of control | endpoint: mean survival time, dose: 400.0 mg/kg/injection, schedule: Q04DX002 (ip), vehicle: Klucel (hydroxypropylcellulose) (HPC) 98 % of control

CC(C)C(NC(=O)CNC(=O)CCl)C(=O)O (configuration not stated) (ClAc-Gly-[ξV]-OH)
inactive: [1] 92 % of control | endpoint: mean survival time, dose: 25.0 mg/kg/injection, schedule: Q04DX003 (ip), vehicle: saline with Tween-80 96 % of control | [8] 97 % of control | endpoint: mean survival time, dose: 50.0 mg/kg/injection, schedule: Q04DX003 (ip), vehicle: saline with Tween-80 100 % of control | [2] 97 % of control | [3] 100 % of control

CC(=O)Nc1ccc(/C=N\NC(=O)C2CC2)cc1
inactive: [3] 93 % of control | [5] 96 % of control | [6] 93 % of control

O=C1CN(Cl)C(=O)CN1Cl
inactive: endpoint: mean survival time, dose: 37.5 mg/kg/injection, schedule: Q04DX002 (ip), vehicle: saline with Tween-80 98 % of control | endpoint: mean survival time, dose: 75.0 mg/kg/injection, schedule: Q04DX002 (ip), vehicle: saline with Tween-80 98 % of control | endpoint: mean survival time, dose: 150.0 mg/kg/injection, schedule: Q04DX002 (ip), vehicle: saline with Tween-80 102 % of control

CC1=N/C(=C/c2ccccc2)C(=O)O1
inactive: [2] 97 % of control | [4] 98 % of control | [9] 88 % of control

NC(=O)CC=O
inactive: endpoint: mean survival time, dose: 75.0 mg/kg/injection, schedule: Q01DX001 (ip), vehicle: saline 98 % of control | endpoint: mean survival time, dose: 150.0 mg/kg/injection, schedule: Q01DX001 (ip), vehicle: saline 93 % of control | endpoint: mean survival time, dose: 300.0 mg/kg/injection, schedule: Q01DX001 (ip), vehicle: saline 95 % of control

CC[N+](C)(CC)Cc1cc(C(C)=O)c(C)o1
inactive: endpoint: mean survival time, dose: 6.25 mg/kg/injection, schedule: Q04DX002 (ip), vehicle: saline 98 % of control | endpoint: mean survival time, dose: 12.5 mg/kg/injection, schedule: Q04DX002 (ip), vehicle: saline 98 % of control | endpoint: mean survival time, dose: 25.0 mg/kg/injection, schedule: Q04DX002 (ip), vehicle: saline 102 % of control | endpoint: mean survival time, dose: 50.0 mg/kg/injection, schedule: Q04DX002 (ip), vehicle: saline 91 % of control | endpoint: median survival time, dose: 50.0 mg/kg/injection, schedule: Q04DX002 (ip), vehicle: saline 100 % of control

Cc1cc(C(C)(C)C)c(OC(=S)N(C)C)c(C(C)(C)C)c1
inactive: [1] 92 % of control | [8] 89 % of control

O=C1C(Br)C2CCC1C2C(=O)O (configuration not stated)
inactive: [3] 101 % of control | [5] 98 % of control | [6] 98 % of control

COC(=O)c1ccc[n+](CC(=O)c2ccccc2)c1
inactive: [8] 101 % of control | [2] 96 % of control | [4] 98 % of control

CCCCC(CC)CCC(OC(=O)CSC#N)C(C)CC (configuration not stated)
inactive: endpoint: mean survival time, dose: 100.0 mg/kg/injection, schedule: Q01DX001 (ip), vehicle: saline 97 % of control | endpoint: mean survival time, dose: 200.0 mg/kg/injection, schedule: Q01DX001 (ip), vehicle: saline 91 % of control | endpoint: mean survival time, dose: 400.0 mg/kg/injection, schedule: Q01DX001 (ip), vehicle: saline 97 % of control

CCCCCCCCC1SC1CCCCCCCC(=O)NCCOC(=O)CCCCCCCC1SC1CCCCCCCC (configuration not stated)
inactive: [2] 92 % of control | [4] 95 % of control | [9] 93 % of control

COC(=O)C1CN1C1=C(C)C(=O)C2=C(C1=O)C(COC(N)=O)C1(OC)C3NC3CN21 (configuration not stated)
inactive: endpoint: median survival time, dose: 1.5 mg/kg/injection, schedule: Q01DX001 (ip), vehicle: water 104 % of control | endpoint: median survival time, dose: 3.0 mg/kg/injection, schedule: Q01DX001 (ip), vehicle: water 103 % of control | endpoint: median survival time, dose: 6.0 mg/kg/injection, schedule: Q01DX001 (ip), vehicle: water 123 % of control | endpoint: median survival time, dose: 12.0 mg/kg/injection, schedule: Q01DX001 (ip), vehicle: water 123 % of control | endpoint: median survival time, dose: 24.0 mg/kg/injection, schedule: Q01DX001 (ip), vehicle: water 121 % of control and 124 % of control

O=C(Oc1ccc(=O)[nH]n1)c1ccccc1
inactive: endpoint: mean survival time, dose: 12.5 mg/kg/injection, schedule: Q04DX002 (ip), vehicle: saline with Tween-80 98 % of control | endpoint: mean survival time, dose: 25.0 mg/kg/injection, schedule: Q04DX002 (ip), vehicle: saline with Tween-80 94 % of control | endpoint: mean survival time, dose: 50.0 mg/kg/injection, schedule: Q04DX002 (ip), vehicle: saline with Tween-80 90 % of control and 94 % of control | [7] 87 % of control

O=C1CCCCCCCCCCC1Sc1ccccc1 (configuration not stated)
inactive: [3] 91 % of control | [5] 100 % of control | [6] 91 % of control

CC(C)(C)C1CCC(O)(CSc2ccccc2)CC1 (configuration not stated)
inactive: [3] 97 % of control | [5] 92 % of control | [6] 92 % of control

CN(C)N=Nc1ccc(C(N)=O)cc1C(N)=O
inactive: endpoint: mean survival time, dose: 18.75 mg/kg/injection, schedule: Q01DX009 (ip), vehicle: Klucel (hydroxypropylcellulose) (HPC) 115 % of control and 104 % of control | endpoint: mean survival time, dose: 37.5 mg/kg/injection, schedule: Q01DX009 (ip), vehicle: Klucel (hydroxypropylcellulose) (HPC) 122 % of control and 112 % of control | endpoint: mean survival time, dose: 75.0 mg/kg/injection, schedule: Q01DX009 (ip), vehicle: Klucel (hydroxypropylcellulose) (HPC) 123 % of control and 124 % of control

CC(C)S(=O)(=O)/C(Cl)=C(/Cl)C(Cl)=C(Cl)Cl
inactive: [8] 106 % of control

Cc1noc(C)c1CC1(c2ccccc2)CCCCC1=O (configuration not stated)
inactive: endpoint: mean survival time, dose: 100.0 mg/kg/injection, schedule: Q01DX001 (ip), vehicle: Klucel (hydroxypropylcellulose) (HPC) 92 % of control | endpoint: mean survival time, dose: 200.0 mg/kg/injection, schedule: Q01DX001 (ip), vehicle: Klucel (hydroxypropylcellulose) (HPC) 92 % of control | endpoint: mean survival time, dose: 400.0 mg/kg/injection, schedule: Q01DX001 (ip), vehicle: Klucel (hydroxypropylcellulose) (HPC) 86 % of control
